Test results: ChEMBL document CHEMBL4052761, “20(R)-Ginsenoside Rg3 protects SH-SY5Y cells against apoptosis induced by oxygen and glucose deprivation/reperfusion” (2017)
The source made the active and inactive calls. The calls are words filed in the database; no cut-off is given here.

Experiments:
SH-SY5Y [1] = test: (§1) Cytoprotection against oxygen-glucose deprivation/reperfusion-induced cell death in human SH-SY5Y cells assessed as late apoptotic cells at 1 umol/L pretreated for 24 hrs followed by oxygen-glucose deprivation for 10 hrs and reperfusion for 24 hrs by annexin V-FITC-propidium iodide staining-based flow cytometry method (reference value: 10.5%); assay type: functional
SH-SY5Y [2] = test: as §1, with “early” for “late”, “24.0%)” for “10.5%)”; assay type: functional
SH-SY5Y [3] = test: as §1, with “as early” for “as late”, “at 25” for “at 1”, “value: 24.0%)” for “value: 10.5%)”; assay type: functional
SH-SY5Y [4] = test: as §1, with “necrotic” for “late apoptotic”, “cells” for “cells at 1 umol/L”, “2.3%)” for “10.5%)”; assay type: functional
SH-SY5Y [5] = test: Cytoprotection against oxygen-glucose deprivation/reperfusion-induced cell death in human SH-SY5Y cells assessed as decrease in cleaved caspase-3 level at 25 to 125 umol/L pretreated for 24 hrs followed by oxygen-glucose deprivation for 10 hrs and reperfusion for 24 hrs by Western blot analysis; assay type: functional, cell-based
SH-SY5Y [6] = test: as §1, with “viable” for “late apoptotic”, “cells” for “cells at 1 umol/L”, “63.2%)” for “10.5%)”; assay type: functional
SH-SY5Y [7] = test: as §1, with “at 25” for “at 1”; assay type: functional
SH-SY5Y [8] = test: Cytoprotection against oxygen-glucose deprivation/reperfusion-induced cell death in human SH-SY5Y cells assessed as decrease in Bax protein level at 5 to 125 umol/L pretreated for 24 hrs followed by oxygen-glucose deprivation for 10 hrs and reperfusion for 24 hrs by Western blot analysis; assay type: functional, cell-based
SH-SY5Y [9] = test: Cytoprotection against oxygen-glucose deprivation/reperfusion-induced cell death in human SH-SY5Y cells assessed as increase in Bcl2 m-RNA expression at 125 umol/L pretreated for 24 hrs followed by oxygen-glucose deprivation for 10 hrs and reperfusion for 24 hrs by RT-qPCR analysis; assay type: functional, cell-based
SH-SY5Y [10] = test: as §1, with “as viable” for “as late apoptotic”, “at 25” for “at 1”, “value: 63.2%)” for “value: 10.5%)”; assay type: functional; details: read-out: Activity
SH-SY5Y [11] = test: Cytoprotection against oxygen-glucose deprivation/reperfusion-induced cell death in human SH-SY5Y cells assessed as reduction in LDH leakage at 25 to 125 umol/L pretreated for 24 hrs followed by oxygen-glucose deprivation for 10 hrs and reperfusion for 24 hrs; assay type: functional, cell-based
SH-SY5Y [12] = test: as §1, with “as necrotic” for “as late apoptotic”, “at 125” for “at 1”, “value: 2.3%)” for “value: 10.5%)”; assay type: functional
SH-SY5Y [13] = test: Cytoprotection against oxygen-glucose deprivation/reperfusion-induced cell death in human SH-SY5Y cells assessed as decrease in Bax m-RNA expression at 125 umol/L pretreated for 24 hrs followed by oxygen-glucose deprivation for 10 hrs and reperfusion for 24 hrs by RT-qPCR analysis; assay type: functional, cell-based
SH-SY5Y [14] = test: as §1, with “necrotic” for “late apoptotic”, “2.3%)” for “10.5%)”; assay type: functional
SH-SY5Y [15] = test: as §1, with “cells” for “cells at 1 umol/L”; assay type: functional
SH-SY5Y [16] = test: as §1, with “as necrotic” for “as late apoptotic”, “at 5” for “at 1”, “value: 2.3%)” for “value: 10.5%)”; assay type: functional
SH-SY5Y [17] = test: Cytoprotection against oxygen-glucose deprivation/reperfusion-induced cell death in human SH-SY5Y cells assessed as increase in Bcl-2 protein level at 5 to 125 umol/L pretreated for 24 hrs followed by oxygen-glucose deprivation for 10 hrs and reperfusion for 24 hrs by Western blot analysis; assay type: functional, cell-based
SH-SY5Y [18] = test: as §1, with “at 5” for “at 1”; assay type: functional
SH-SY5Y [19] = test: as §1, with “as viable” for “as late apoptotic”, “at 5” for “at 1”, “value: 63.2%)” for “value: 10.5%)”; assay type: functional; details: read-out: Activity
SH-SY5Y [20] = test: as §1, with “early” for “late”, “cells” for “cells at 1 umol/L”, “24.0%)” for “10.5%)”; assay type: functional
SH-SY5Y [21] = test: as §1, with “as necrotic” for “as late apoptotic”, “at 25” for “at 1”, “value: 2.3%)” for “value: 10.5%)”; assay type: functional
SH-SY5Y [22] = test: Cytoprotection against oxygen-glucose deprivation/reperfusion-induced cell death in human SH-SY5Y cells assessed as increase in cell viability at 25 to 125 umol/L pretreated for 24 hrs followed by oxygen-glucose deprivation for 10 hrs and reperfusion for 24 hrs by MTT assay; assay type: functional, cell-based
SH-SY5Y [23] = test: Cytoprotection against oxygen-glucose deprivation/reperfusion-induced cell death in human SH-SY5Y cells assessed as reduction in LDH leakage at 1 to 5 umol/L pretreated for 24 hrs followed by oxygen-glucose deprivation for 10 hrs and reperfusion for 24 hrs; assay type: functional, cell-based
SH-SY5Y [24] = test: Cytoprotection against oxygen-glucose deprivation/reperfusion-induced cell death in human SH-SY5Y cells assessed as decrease in Bax m-RNA expression pretreated for 24 hrs followed by oxygen-glucose deprivation for 10 hrs and reperfusion for 24 hrs by RT-qPCR analysis; assay type: functional, cell-based
SH-SY5Y [25] = test: as §1, with “as early” for “as late”, “at 5” for “at 1”, “value: 24.0%)” for “value: 10.5%)”; assay type: functional
SH-SY5Y [26] = test: Cytoprotection against oxygen-glucose deprivation/reperfusion-induced cell death in human SH-SY5Y cells assessed as increase in Bcl2 m-RNA expression pretreated for 24 hrs followed by oxygen-glucose deprivation for 10 hrs and reperfusion for 24 hrs by RT-qPCR analysis; assay type: functional, cell-based
SH-SY5Y [27] = test: as §1, with “as viable” for “as late apoptotic”, “at 125” for “at 1”, “value: 63.2%)” for “value: 10.5%)”; assay type: functional; details: read-out: Activity
SH-SY5Y [28] = test: as §1, with “at 125” for “at 1”; assay type: functional
SH-SY5Y [29] = test: as §1, with “as early” for “as late”, “at 125” for “at 1”, “value: 24.0%)” for “value: 10.5%)”; assay type: functional
SH-SY5Y [30] = test: as §1, with “viable” for “late apoptotic”, “63.2%)” for “10.5%)”; assay type: functional; details: read-out: Activity
SH-SY5Y [31] = test: Cytoprotection against oxygen-glucose deprivation/reperfusion-induced cell death in human SH-SY5Y cells assessed as increase in cell viability at 100 umol/L pretreated for 24 hrs followed by oxygen-glucose deprivation for 10 hrs and reperfusion for 24 hrs by MTT assay; assay type: functional, cell-based
SH-SY5Y [32] = test: Cytoprotection against oxygen-glucose deprivation/reperfusion-induced cell death in human SH-SY5Y cells assessed as increase in Bcl2 m-RNA expression at 100 umol/L pretreated for 24 hrs followed by oxygen-glucose deprivation for 10 hrs and reperfusion for 24 hrs by RT-qPCR analysis; assay type: functional, cell-based
SH-SY5Y [33] = test: Cytoprotection against oxygen-glucose deprivation/reperfusion-induced cell death in human SH-SY5Y cells assessed as reduction in LDH leakage at 100 umol/L pretreated for 24 hrs followed by oxygen-glucose deprivation for 10 hrs and reperfusion for 24 hrs; assay type: functional, cell-based
SH-SY5Y [34] = test: Cytoprotection against oxygen-glucose deprivation/reperfusion-induced cell death in human SH-SY5Y cells assessed as decrease in Bax m-RNA expression at 100 umol/L pretreated for 24 hrs followed by oxygen-glucose deprivation for 10 hrs and reperfusion for 24 hrs by RT-qPCR analysis; assay type: functional, cell-based
SH-SY5Y [35] = test: Cytoprotection against oxygen-glucose deprivation/reperfusion-induced cell death in human SH-SY5Y cells assessed as decrease in cleaved caspase-3 level at 100 umol/L pretreated for 24 hrs followed by oxygen-glucose deprivation for 10 hrs and reperfusion for 24 hrs by Western blot analysis; assay type: functional, cell-based

CC(C)=CCC[C@](C)(O)[C@H]1CC[C@]2(C)[C@@H]1[C@H](O)C[C@@H]1[C@@]3(C)CC[C@H](O[C@@H]4O[C@H](CO)[C@@H](O)[C@H](O)[C@H]4O[C@@H]4O[C@H](CO)[C@@H](O)[C@H](O)[C@H]4O)C(C)(C)[C@@H]3CC[C@]12C
Activity (SH-SY5Y [1]): 10.3% | Activity (SH-SY5Y [2]): 17% | Activity (SH-SY5Y [3]): 7.9% | Activity (SH-SY5Y [4]): 8.9% | Activity (SH-SY5Y [5]): Active | Activity (SH-SY5Y [6]): 80.4% | Activity (SH-SY5Y [7]): 5.7% | Activity (SH-SY5Y [8]): Active | Activity (SH-SY5Y [9]): Active | viability at 25 µM (SH-SY5Y [10]): 77.5% | Activity (SH-SY5Y [11]): Active | Activity (SH-SY5Y [12]): 9.8% | Activity (SH-SY5Y [13]): Active | Activity (SH-SY5Y [14]): 2.7% | Activity (SH-SY5Y [15]): 2.8% | Activity (SH-SY5Y [16]): 5.8% | Activity (SH-SY5Y [17]): Active | Activity (SH-SY5Y [18]): 11.3% | viability at 5 µM (SH-SY5Y [19]): 70% | Activity (SH-SY5Y [20]): 8% | Activity (SH-SY5Y [21]): 8.9% | Activity (SH-SY5Y [22]): Active | Activity (SH-SY5Y [23]): inactive | Activity (SH-SY5Y [24]): Dose-dependent effect | Activity (SH-SY5Y [25]): 13% | Activity (SH-SY5Y [26]): Dose-dependent effect | viability at 125 µM (SH-SY5Y [27]): 80.4% | Activity (SH-SY5Y [28]): 4.8% | Activity (SH-SY5Y [29]): 5% | viability at 1 µM (SH-SY5Y [30]): 69.9%

COCCOC(=O)C1=C(C)NC(C)=C(C(=O)OC(C)C)C1c1cccc([N+](=O)[O-])c1 (stereo not given)
Activity (SH-SY5Y [31]): Active | Activity (SH-SY5Y [32]): Active | Activity (SH-SY5Y [33]): Active | Activity (SH-SY5Y [34]): Active | Activity (SH-SY5Y [35]): Active
